Measured values reported in patent US11492362B1, “Pyridine derivatives for the treatment of hyperproliferative diseases” (King Abdulaziz University, priority 2022, dated 2022).
In brackets after ≈: the same amount, converted by molar mass.

Key:
HL-60 = assay: Confluency analysis; format: cell-based, human; details: HL-60, 50 μg/mL
Leukemia HL-60 cells = assay: Annexin V-FITC/PI apoptosis detection; format: cell-based, human; details: HL-60, Annexin V-FITC/PI
Protocol: (§1) For cell cycle analysis, cell pellets were fixed with 70% ethanol on ice for 15 min and collected again. The collected pellets were incubated with propidium iodide (PI) staining solution ([…], 0.1 mg/mL RNaseA, 0.05% Triton X-100) at room temperature for 1 hour and analyzed by Gallios® flow cytometer (Beckman Coulter, Brea, Calif., USA). Apoptosis detection was performed by FITC Annexin V/PI commercial kit (Becton Dickenson, Franklin Lakes, N.J., USA) following the manufacturer's protocol. The samples were analyzed by fluorescence-activated cell sorting (FACS) with a Gallios® flow cytometer (Beckman Coulter, Brea, Calif., USA) within 1 h after staining. Data were analyzed using Kaluzav® 1.2 (Beckman Coulter).
Moreover, compound 4 increased the percentage of late apoptotic cells by 43.07-more than untreated control.

[1] = system: HL-60 (leukemia) cell lines; assay: In vitro cytotoxicity, MTT assay; format: cell-based; details: Homo sapiens, 72 h; HL-60, MTT, 3 days
Protocol: Cells suspended in medium (2×10^4 cells/mL) were plated in 96-well culture plates and incubated at 37° C. in a 5% CO2 incubator. After 12 h, the test sample (2 μL) was added to the cells (2×10^4) in 96-well plates and cultured at 37° C. for 3 days. The cultured cells were mixed with 20 μL of MTT solution and incubated for 4 h at 37° C. The supernatant was carefully removed from each well and 100 μL of DMSO was added to each well to dissolve the formazan crystals which were formed by the cellular reduction of MTT. After mixing with a mechanical plate mixer, the absorbance of each well was measured by a microplate reader using a test wavelength of 570 nm. The results were expressed as the IC50 (μM), which induces a 50% inhibition of cell growth of the treated cells when compared to the growth of control cells. Each experiment was performed at least 3 times. There was a good reproducibility between the replicate wells with standard error [46].
In vitro cytotoxicity of the synthesized compounds 4, 6, and 7 was determined using the MTT assay against HL-60 (leukemia) cell lines. Doxorubicin (Doxo) one of the most efficient anticancer agentd was utilized as a reference compound in this study.

Leukemia HL-60 cell line = assay: Cell cycle analysis, PI staining and DNA flow cytometry; format: cell-based, human; details: HL-60, compound at its IC50 concentration
Protocol: as §1
Cell cycle analysis was assessed in Leukemia HL-60 cell line after staining the nuclei with propidium iodide (PI) followed by DNA flow cytometry analysis.

[2] = system: caspase 3/7 in Leukemia HL-60 cells; assay: Activated caspase 3/7 assay; format: cell-based, human; details: HL-60, IC50 concentration, 24 h, flow cytometry; untreated control 0.54%
Protocol: Activities of caspases-3 and -7 were measured using DRG Caspase-3 (human) ELISA (EIA-4860) kit (DRG International Inc., USA), Invitrogen. Caspase-7 (Active) (human) ELISA kit, Catalog #KHO1091 (96 tests) (Invitrogen Corporation, USA) according to the manufacturer's instructions.
The activation of caspase 3/7 was determined in compound 4 treated Leukemia HL-60 cells at IC50 concentration using green flow cytometry assay for 24 h.

c1cc(-c2ccn3cnnc3n2)nc(-c2ccn3cnnc3n2)c1 [Compound 4, 2,6-bis([1,2,4]triazolo[4,3-a]pyrimidin-7-yl)pyridine]
cell morphology in the image (HL-60): round, high-contrast objects
cell survival percentage in comparison with untreated control (Leukemia HL-60 cells): sharp decrease
increase of percentage of early apoptotic cells versus untreated control (Leukemia HL-60 cells): 8.14 fold
increase of percentage of late apoptotic cells versus untreated control (Leukemia HL-60 cells): 43.07
IC50 [1]: 3.28 ± 0.13 µg/mL (≈ 10.4 µM)
percentage of cells at pre-G1 peak (Leukemia HL-60 cell line; control 1.42%): 19.32%
cell percentage in the G2/M phase (Leukemia HL-60 cell line; untreated control 16.80%): 51.84%
level of caspase 3/7 percentage [2]: 10.04%

CN(C)/C=C/C(=O)c1cccc(C(=O)/C=C\Nc2sc3c(c2C#N)CCCC3)n1 [Compound 6, 2-(((Z)-3-(6-((E)-3-(dimethylamino)acryloyl)pyridin-2-yl)-3-oxoprop-1-en-1-yl)amino)-4,5,6,7-tetrahydrobenzo[b]thiophene-3-carbonitrile]
IC50 [1]: 3.66 ± 0.11 µg/mL (≈ 9 µM)

CN(C)C=CC(=O)c1cccc(C(=O)C=CN(C)C)n1 [Compound 2, 2,6-Bis(3-dimethylamino-1-oxoprop-2-en-yl)pyridine]
melting point: 236.4 to 237.2 °C

N#Cc1c(N/C=C\C(=O)c2cccc(C(=O)/C=C\Nc3sc4c(c3C#N)CCCC4)n2)sc2c1CCCC2 [Compound 7, 2,2′-(((1Z,1′Z)-pyridine-2,6-diylbis(3-oxoprop-1-ene-3,1-diyl))bis(azanediyl))bis(4,5,6,7-tetrahydrobenzo[b]thiophene-3-carbonitrile)]
IC50 [1]: 28.5 ± 1.56 µg/mL (≈ 52.9 µM)

COc1cccc2c1C(=O)c1c(O)c3c(c(O)c1C2=O)C[C@@](O)(C(=O)CO)C[C@@H]3O[C@H]1C[C@H](N)[C@H](O)[C@H](C)O1 [Dox, Doxorubicin, reference compound]
IC50 [1]: 2.2 ± 0.08 µg/mL (≈ 4.05 µM)
